The numbers were not newly measured in US10654893B2, “Self-assembling peptide compositions” (3-D MATRIX, LTD., priority 2014, dated 2020), which cites them from elsewhere.

Broadly, the pKa is the negative logarithm of the acid dissociation constant.

For this data set the following is noted: cited from earlier work.

On to `N[C@@H](CC(=O)O)C(=O)O` [aspartic acid], for which the pKa is on record as 3.71.
In the case of `N[C@@H](CCC(=O)O)C(=O)O` [glutamic acid], the pKa is listed as 4.15.
